Test [1] has as its system TLR9 signaling. Put plainly: ODN 1668-induced cytokine mRNA expression in BMDM (quantitative real time PCR). The test is classed as cell-based, mouse. As to conditions: BMDM; for inhibition of TLR9 signaling (ODN 1668-induced cytokine mRNA, overall): peptide 10, 20 or 40 μM, ODN 1668 1 μM; for TNFα mRNA expression / IL-12-p40 mRNA expression / IL-10 mRNA expression: peptide 10, 20 or 40 μM 30 min before ODN 1668 (1 μM), normalized to HPRT; for TNFα mRNA expression: 1 hour after stimulation; for IL-12-p40 mRNA expression / IL-10 mRNA expression: 1 hour. Here is the method: The cDNA obtained was amplified with gene-specific primers for mouse HPRT, TNFα, IL-10, IL-12-p40, or IL-6 and Fast SYBR Green™ master mix (Applied Biosystemsm) as previously described.
Mouse BMDMs were incubated in the presence of a 10, 20 or 40 μM decoy peptide for 30 minutes prior to stimulation with ODN 1668 (1 μM). […] Data represent the means±SEM of at least three independent experiments. The statistical significance of changes in cytokine mRNA was determined by a one-way ANOVA test; *p<0.001. Peptides 9R3 and 9R34 have overlapping sequences (see Table 1).
To investigate inhibition of TLR9 signaling by 9R34 analogues, the following work was performed. Mouse BMDMs were incubated in the presence of a 10, 20 or 40 μM decoy peptide for 30 minutes prior to stimulation with ODN 1668 (1 μM). Cytokine mRNA expression was measured 1 hour after ODN 1668 challenge and normalized to the expression of HPRT. See also Table 1. Data represent means±SEM of at least three independent experiments.
Background: In qPCR the cycle at which signal appears reflects the starting amount.

In the next test the test system is myDDosome. As to conditions: BMDM pretreated with CPDP; MyD88 IP, IRAK4 blot. The protocol:
Four million BMDMs per well were plated in 6-well plates and treated with CPDP for 30 minutes prior to stimulation with ODN 1668 for 90 minutes. Cells were lysed in 600 p L of buffer containing 20 mM HEPES (pH 7.4), 150 mM NaCl, 10 mM NaF, 2 mM Na3VO4, 1 mM EDTA, 1 mM EGTA, 0.5% Triton X-100, 0.1 mM DTT, and protease inhibitor cocktail (Roche™). Cell extracts were incubated overnight with 1 μg of anti-mouse MyD88 antibody (AF3109) (R&D Systems™, followed by a 4-hour incubation with 20 μL protein G Sepharose beads (ThermoFisherm Scientific). The beads were then washed 3 times with 500 μL of lysis buffer and boiled in 60 μL of Laemmli sample buffer (Bio-Rad™). Cell extracts were electrophoresed on 10% acrylamide gel by SDS-PAGE and transferred to PVDF membrane (Bio-Rad™). Rabbit anti-MyD88 IgG was purchased from Cell Signaling™. Mouse anti-IRAK4 IgG was obtained from Abcam™. Alkaline phosphatase-conjugated secondary antibodies against mouse and rabbit IgG were purchased from Cell Signaling™. The stabilized substrate for alkaline phosphatase was from Promega™.
TLR stimulation causes formation of myDDosome, a signaling complex composed through interactions of IRAK and MyD88 death domains. To test if peptides inhibit myDDosome formation, MyD88 was immunoprecipitated from lysates of ODN-stimulated BMDM and the precipitates analyzed for IRAK4 presence. BMDM were lysed and lysates immunoprecipitated with anti-MyD88 Ab and immune complexes assessed with anti-IRAK4 Ab 3 hours after cell treatment with ODN 1668.

For test [2], the system named is TLR9 signaling. Put plainly: Plasma cytokines after i.p. ODN 1668 in mice. The test is classed as in vivo, C57BL/6J mice. The conditions noted are these: peptide 200 nmol/mouse i.p.; ODN 1668 7.86 nmol/mouse. The protocol:
Systemic cytokine levels were measured in plasma samples obtained 1, 3, and 5 hours after intraperitoneal (i.p.) administration of 7.86 nmol (50 μg) of ODN 1668 or 67 nmol of Pam3C per mouse, using ELISA kits from Biolegend™ Inc. CPDP were dissolved in PBS and administered i.p. at the dose of 200 nmol per mouse 1 hour before administration of a TLR agonist. For survival experiments, mice were sensitized to TLR9 agonists by i.p. injection of 20 mg of D-Gal 30 minutes before administration of peptides or PBS. ODN 1668 was used at the doses of 3.93 or 7.86 nmol/mouse (25 or 50 μg/mouse) 1.5 hours after D-Gal. Animal survival was monitored for 50 hours. All agents were administered i.p. in 500 μL volume of PBS. Animals had free access to food and water during the observation period. All animal experiments were conducted in accordance with the national guidelines for the care and use of laboratory animals under a protocol that was approved by the UMB IACUC.
To test the in vivo efficacy and specificity of 9R34-ΔN, C57BL/6J mice were mock-treated or treated i.p. with a single dose of inhibitory or control peptide (200 nmol/mouse) and challenged with TLR9 agonist ODN 1668 (7.86 nmol/mouse) or TLR2/1 agonist Pam3C (67 nmol/mouse) 1 hour later. Plasma concentrations of TNFα and IL-12-p40 were measured 1, 3, and 5 hours after the challenge. Both TLR agonists increased concentrations of TNFα and IL-12-p40 in 1 hour samples from below the limit of detection to about 1.2 and about 6 ng/mL in the case of ODN 1668, and to 0.12 ng/mL and 1 ng/mL after treatment with Pam3C.
Plasma TNFα and IL-12-p40 levels following intraperitioneal administration of ODN 1668 to C57Bl/6J mice in peptide-pretreated and control mice are shown in FIG. 14A and FIG. 14B. Data shown in these figures represent the means±SEM obtained in at least three independent experiments. The statistical significance of changes in cytokine concentrations was determined by a two-way ANOVA test; *p<0.001.

For test [3], the system named is TLR9 signaling. Put plainly: ODN 1668-induced cytokine secretion in BMDM supernatants (ELISA). The conditions noted are these: peptide 40 μM; 5 hour supernatants; ODN 1668 1 μM. It counts as cell-based, mouse. The protocol: Mouse TNFα and IL-12-p40 concentrations were measured in supernatants using ELISA kits from Biolegend™, Inc.
BMDMs were incubated in the presence of a decoy peptide for 30 minutes prior to stimulation with ODN 1668 (1 μM). The statistical significance of changes in cytokine levels was determined by the one-way ANOVA test; *p<0.01.
(In general: In an ELISA, binding on a coated surface is turned into a signal by an enzyme label.)

“Also recorded” adds a separate entry of the source. No end group written: not given here.

DKTQSAVADWVYNE (Synthetic peptide 9R2): the “inhibition of TLR9 signaling (ODN 1668-induced cytokine mRNA, overall)” value (“inhibition of TLR9 signaling” for short) with TLR9 signaling [1] is listed as “did not inhibit TLR9”. Also, the “ODN 1668-induced myDDosome formation” value with myDDosome is “not”. The “ODN 1668-induced plasma cytokine levels (TNFα, IL-12-p40)” value with TLR9 signaling [2] is reported as “did not significantly reduce”.

Turning to “GRWALRACAEERD (Synthetic peptide 9R34-delta-L2) [Peptide 9R34-ΔL2]”, the “inhibition of TLR9 signaling” value in the test with TLR9 signaling [1] is reported as “inhibited TLR9 signaling less potently”.

As to “GRWALRACLEERD (Synthetic peptide 9R34-delta-L1) [Peptide 9R34-ΔL1]”, in the test with TLR9 signaling [1], the “inhibition of TLR9 signaling” value is listed as “inhibited TLR9 signaling less potently”.

Regarding “GRWALRLCLE (Synthetic peptide 9R34-delta-C) [Peptide 9R34-ΔC]”, the “inhibition of TLR9 signaling” value with TLR9 signaling [1] is “as potent as the parent peptide”.

For the sequence “GRWALRLSLEERD (Synthetic peptide 9R34-C/S)”, the “inhibition of TLR9 signaling” value with TLR9 signaling [1] is reported as “as potent as the parent peptide”.

For the sequence HTDRVSGLLRASFL (Synthetic peptide 9R6), in the test on TLR9 signaling [1], the “TNFα mRNA expression” value is “partial activity”; the “IL-12-p40 mRNA expression” value is “partial activity”; the “inhibition of TLR9 signaling” value is given as “some inhibitory activity; also recorded: weakly inhibited”.

For the sequence LEERDWLPGKTLFE (Synthetic peptide 9R4), in the test on TLR9 signaling [1], the “inhibition of TLR9 signaling” value is on record as “did not inhibit”.

As to “RGQLEECRGRWALR (also: antennapedia vector attached) [Peptide 9R3, tested as CPDP with antennapedia vector]”, in the test on TLR9 signaling [1], the “TNFα mRNA expression” value is given as “significantly suppressed”; the “IL-10 mRNA expression” value is “significantly suppressed”; the “IL-12-p40 mRNA expression” value is reported as “significantly suppressed”; the “inhibition of TLR9 signaling” value is recorded as “inhibit TLR9 signaling”.

With RYVRLRQRLCRQS (Synthetic peptide 9R9), in the test with TLR9 signaling [1], the “TNFα mRNA expression” value is “significantly suppressed”; the “IL-10 mRNA expression” value is “significantly suppressed”; the “IL-12-p40 mRNA expression” value is reported as “significantly suppressed”; the “inhibition of TLR9 signaling” value is on record as “inhibit TLR9 signaling; also recorded: inhibited signaling weaker than 9R34 or 9R11”. Besides, in the test on TLR9 signaling [3], the “production/secretion of TNFα” value is recorded as “did not inhibit significantly” and the “secretion of IL-12-p40” value is “reduced secretion”.

On to SPDGRRSRYVR (Synthetic peptide 9R8), for which, in the test on TLR9 signaling [1], the “inhibition of TLR9 signaling” value is “some inhibitory activity”.

For the origin of these results see patent US12084521B2, “TLR9 inhibitors to suppress inflammatory response to pathogens” (University Of Maryland, Baltimore, priority 2018, dated 2024).
